Values after ≈ are worked out from the molar mass of the structure shown. Where two headings read alike, the source gives them in different places.
Key:
[1] = system: PPARα expression in 661W cells; assay: Western blot analysis of PPARα expression in 661W cells; assay type: cell-based, mouse; details: 24 h, 10, 50 and 100 μM
Method: (§1) To further confirm that this 4-benzyloxy-benzylamino chemotype acts as a PPARα agonist, we evaluated compound 10 in various biochemical assays. […] Compound 10 was also evaluated in an in vitro wound healing assay utilizing human retinal capillary endothelial cells (HRCEC).

[2] = system: PPARα target genes (Acadm, Cpt1a, Fabp3, Slc25a20) in 661W cells; assay: RT-PCR of PPARα target genes in 661W cells; assay type: cell-based, mouse; details: 24 h
Method: as §1

hPPARγ = molecular target: T1, hPPARγ (Homo sapiens, UniProt P37231); assay: PPARγ luciferase reporter cell-line assay (Indigo Biosciences); assay type: cell-based
T1 construct: expressed in transfected cells
T1 sequence (P37231 1-505): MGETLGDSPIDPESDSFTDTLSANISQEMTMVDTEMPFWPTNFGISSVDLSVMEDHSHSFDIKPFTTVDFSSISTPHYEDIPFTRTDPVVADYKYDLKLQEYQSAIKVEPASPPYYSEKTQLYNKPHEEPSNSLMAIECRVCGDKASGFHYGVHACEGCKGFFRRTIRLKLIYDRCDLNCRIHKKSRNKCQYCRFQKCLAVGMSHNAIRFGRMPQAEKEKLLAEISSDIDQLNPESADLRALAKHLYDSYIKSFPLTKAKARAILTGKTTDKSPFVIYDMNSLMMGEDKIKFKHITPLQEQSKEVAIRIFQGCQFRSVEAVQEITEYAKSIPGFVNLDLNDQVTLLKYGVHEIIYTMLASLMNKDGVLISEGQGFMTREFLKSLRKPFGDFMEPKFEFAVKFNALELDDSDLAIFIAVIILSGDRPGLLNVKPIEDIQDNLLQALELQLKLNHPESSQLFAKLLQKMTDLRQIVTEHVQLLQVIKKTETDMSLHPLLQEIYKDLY
Method: (§2) Luciferase assays were conducted on isogenic cell-lines engineered to overexpress either PPARδ or PPARγ with expression of the requisite luciferase reporter gene dependent upon exogenous activation of each isoform.

hPPARδ = molecular target: T2, hPPARδ (Homo sapiens, UniProt Q03181); assay: PPARδ luciferase reporter cell-line assay (Indigo Biosciences); assay type: cell-based
T2 construct: expressed in transfected cells
T2 sequence (Q03181 1-441): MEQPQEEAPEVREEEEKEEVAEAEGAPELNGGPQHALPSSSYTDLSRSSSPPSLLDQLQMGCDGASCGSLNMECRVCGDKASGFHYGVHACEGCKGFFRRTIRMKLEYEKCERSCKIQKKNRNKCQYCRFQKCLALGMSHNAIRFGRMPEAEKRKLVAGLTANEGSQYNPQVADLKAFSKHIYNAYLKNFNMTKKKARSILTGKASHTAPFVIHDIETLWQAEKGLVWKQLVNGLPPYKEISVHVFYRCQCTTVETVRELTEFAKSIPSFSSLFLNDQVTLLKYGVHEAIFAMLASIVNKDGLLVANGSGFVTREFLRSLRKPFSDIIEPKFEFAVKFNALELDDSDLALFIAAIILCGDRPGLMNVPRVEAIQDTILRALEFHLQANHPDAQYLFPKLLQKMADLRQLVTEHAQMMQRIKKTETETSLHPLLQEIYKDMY
Method: as §2

[3] = system: retinal vascular leakage in diabetic rats; assay: STZ-rat model of diabetic retinopathy, retinal permeability; assay type: in vivo
Method: 7-8 week-old male Brown Norway rats were injected with streptozotocin (STZ, 55 mg/kg).

[4] = system: liver phenotype of STZ diabetic rats; assay: STZ-rat model, liver phenotype and toxicity; assay type: in vivo
Method: 7-8 week-old male Brown Norway rats were injected with streptozotocin (STZ, 55 mg/kg). Two weeks after STZ injections, daily treatment (i.p. injection) with ASD091 or FenoFA commenced and lasted for 26-28 days. ≠P<0.05 (vs. FenoFA), *P<0.05 (vs. STZ-DMSO).

hPPARα = molecular target: T3, hPPARα (Homo sapiens, UniProt Q07869); assay: PPARα luciferase cell reporter assay (Indigo Biosciences); assay type: cell-based; details: for Fold (5 μM): fold increase in luciferase compared to DMSO negative control / Fold (50 μM): fold increase in luciferase compared to DMSO negative control: structure IIa compounds (Table 6); for ratio of agonism compared to GW590735 (value in parentheses): hPPARα luciferase reporter cell-line; for PPAR isoform selectivity profile: hPPARα vs hPPARδ and hPPARγ luciferase cell-lines; for dose-dependent PPARα agonism in cell-based luciferase reporter assay: FIGS. 4 and 7
T3 sequence (Q07869 1-468): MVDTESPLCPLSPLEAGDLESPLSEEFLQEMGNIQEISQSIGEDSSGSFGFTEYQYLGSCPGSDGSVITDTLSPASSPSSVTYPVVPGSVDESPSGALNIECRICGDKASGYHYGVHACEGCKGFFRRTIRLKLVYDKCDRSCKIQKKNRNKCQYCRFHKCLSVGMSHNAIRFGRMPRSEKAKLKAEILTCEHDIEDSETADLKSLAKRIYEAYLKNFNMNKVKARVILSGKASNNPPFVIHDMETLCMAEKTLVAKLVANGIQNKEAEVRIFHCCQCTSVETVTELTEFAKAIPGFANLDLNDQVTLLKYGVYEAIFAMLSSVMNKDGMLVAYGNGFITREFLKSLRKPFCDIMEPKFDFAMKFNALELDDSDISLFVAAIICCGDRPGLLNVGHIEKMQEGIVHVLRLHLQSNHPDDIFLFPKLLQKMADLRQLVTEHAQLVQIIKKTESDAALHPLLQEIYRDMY
Excerpt: With the focused subset of analogs in-hand, our efforts shifted to the evaluation of these derivatives for PPARα agonism. Preliminary evaluation utilized a commercially available PPARα luciferase cell reporter assay (Indigo Biosciences). The cell-line employed is engineered to constitutively express high-levels of hPPARα. Upon interaction with an agonist, hPPARα translocates to the nucleus, binds to the PPRE, and upregulates gene transcription, including the inserted luciferase gene. Luciferase activity is detected indirectly through quantification of oxyluciferin production.

[5] = Solubilities of various compounds; assay type: physicochemical
[6] = Table 6, cellular luciferase activity, read-out: γ EC50
[7] = luciferase reporter cell-line, triplicate, single experiment, read-out: hPPARγ EC50
[8] = Table 6, cellular luciferase activity, read-out: δ EC50
[9] = luciferase reporter cell-line, triplicate, single experiment, read-out: hPPARδ EC50
[10] = STZ diabetic Brown Norway rats, daily i.p. injection 26-28 days
[11] = inferred from efficacy after systemic administration
[12] = Table 6, cellular luciferase activity, read-out: α EC50
[13] = luciferase reporter cell-line, triplicate, single experiment, read-out: hPPARα EC50
[14] = PBS, pH 7.4, aqueous buffer, read-out: PBS Solubility pH 7.4
[15] = water, H2O, read-out: H2O Solubility

EC50 (hPPARγ; [6]) [µM] | EC50 (hPPARγ; [7]) [µM] | EC50 (hPPARδ; [8]) [µM] | EC50 (hPPARδ; [9]) [µM] | Fold (5 μM): fold increase in luciferase compared to DMSO negative control (hPPARα) [fold] | Fold (50 μM): fold increase in luciferase compared to DMSO negative control (hPPARα) [fold] | SMILES | other results
38.6 | 18.3 | 18.3 | 38.6 | – | – | COc1ccc(COc2ccc(CNc3cccc(OC(C)(C)C(=O)O)c3)cc2)cc1 [Compound 114] | –
8.9 | 5.6 | 5.6 | 8.9 | 1 | 41 | COc1ccc(COc2ccc(CNc3cccc(OC(C)(C)C(=O)O)c3)c(OCc3ccc(OC)cc3)c2)cc1 [Compound 115] | improvement in potency on adding third B-ring substituent (hPPARα; 28 compared with 22): 10 fold; EC50 (hPPARα; [12]): 2.1 µM; ratio of agonism compared to GW590735 (value in parentheses) (hPPARα): 1.4; PPAR isoform selectivity profile (hPPARα): pan-agonist profile was maintained; EC50 (hPPARα; [13]): 2.1 µM
> 100 | – | > 100 | – | – | – | Cc1cc(CNc2cccc(C(=O)O)c2)ccc1OCc1ccc(F)cc1 [Compound 190] | dose-dependent PPARα agonism in cell-based luciferase reporter assay (hPPARα): exhibits dose-dependent activity; dose-dependent PPARα agonism in cell-based luciferase reporter assay (hPPARα; listed as A190): dose-dependent agonism of PPARα; EC50 (hPPARα; [12]): 0.03 µM; EC50 (hPPARα; text b235, read-out: EC50 (PPARα)): 0.037 µM
– | – | – | – | 34 | 45 | O=C(O)c1cccc(NCc2ccc(OCc3ccccc3F)cc2)c1 [Compound 195] | –

The next lines start with the molecule.

SMILES | EC50 (hPPARγ; [6]) [µM] | EC50 (hPPARγ; [7]) [µM] | EC50 (hPPARδ; [8]) [µM] | EC50 (hPPARδ; [9]) [µM] | Fold (5 μM): fold increase in luciferase compared to DMSO negative control (hPPARα) [fold] | Fold (50 μM): fold increase in luciferase compared to DMSO negative control (hPPARα) [fold] | other results
COc1ccc(COc2ccc(CNc3cccc(C(=O)O)c3)cc2)cc1 [Compound 91] | > 100 | > 100 | > 100 | > 100 | – | – | expression of PPARα (Western blot, densitometry) [1]: induced the expression of PPARα in a dose-dependent manner; expression of PPARα target genes (Acadm, Cpt1a, Fabp3, Slc25a20) [2]: induces the expression of various PPARα target genes; retinal vascular leakage [3, 10]: reduces retinal vascular leakage in diabetic rats; bioavailability [3, 11]: is bioavailable; blood-ocular barrier crossing [3, 11]: crosses blood-ocular barrier and reaches the retina; signs of hepatomegaly [4, 10]: seems to lack signs of hepatomegaly; observable toxicity ([4]; daily injection for one-month): no observable toxicity
COc1ccc(COc2ccc(CNc3cccc(C(=O)O)c3)c(OCc3ccc(OC)cc3)c2)cc1 [Compound 92] | > 100 | > 100 | > 100 | > 100 | 8 | 21 | EC50 (hPPARα; [12]): 5.1 µM; ratio of agonism compared to GW590735 (value in parentheses) (hPPARα): 1.1; PPAR isoform selectivity profile (hPPARα): maintains the selectivity; EC50 (hPPARα; [13]): 5.1 µM
Cc1cc(CNc2cccc(C(=O)O)c2)ccc1OCc1cc(F)cc(F)c1 [Compound 198] | – | – | – | – | 88 | 84 | –
Cc1cc(CN(C)c2cccc(C(=O)O)c2)ccc1OCc1ccc(F)cc1 [Compound 199] | – | – | – | – | 102 | 131 | –
CC(C)(Oc1ccc(C(=O)c2ccc(Cl)cc2)cc1)C(=O)O [Fenofibric acid, fenofibric acid, reference compound] | – | – | – | – | – | – | solubility [5, 14]: 278 µM (≈ 88.6 µg/mL); solubility [5, 15]: 93 µM (≈ 29.6 µg/mL)
Cc1cc(CNc2cccc(C(=O)OCOP(=O)([O-])O)c2)ccc1OCc1ccc(F)cc1.[Na+] [ZH-2021-162] | – | – | – | – | – | – | solubility [5, 14]: 292 µM; solubility [5, 15]: 318 µM
Cc1cc(CNc2cccc(C(=O)OCOP(=O)(O)O)c2)ccc1OCc1ccc(F)cc1 [ZH-2021-164] | – | – | – | – | – | – | solubility [5, 14]: 316 µM (≈ 150 µg/mL); solubility [5, 15]: 284 µM (≈ 135 µg/mL)

— patent publication US12319708B2, “Agonists of peroxisome proliferator-activated receptor alpha (PPARα) and methods of use” (The Board of Regents of the University of Oklahoma, priority 2018, dated 2025)
